How the values were obtained:
[1] = tested on: Ki67; experiment: Immunofluorescence of Ki67 in tumor sections; type: in vivo, mice
Description: Quantification of tumor cells staining positive for Ki67 with different treatment groups is shown, expressed as the percentage of Ki67 positive cells. The data represent the mean+SD of four HPF images (60×) for each treatment. **, p<0.01, ***, p<0.001. N=˜50 cells/image.
After the tumors were fixed and a heat-mediated antigen retrieval step was performed, the tumors were permeabilized (0.1% Triton X-100) for 10 min and then blocked with 5% BSA in 0.1% PBS-Tween for 2 h. […] Nuclear DNA was labeled with DAPI.

[2] = tested on: MDA-MB-435; experiment: In vivo tumor experiments, tumor size; parameters: species or system mice; details: low dose 2.2 μg/injection, versus untreated controls
Description: MDA-MB-435 cells (4×10^6 cells per injection) were subcutaneously injected bilaterally into each mouse. After 4 days, when the subcutaneous tumors were about 45 mm3, the mice were separated into groups of 6 mice to determine the efficacy of treatments. The groups were as follows: untreated, nanoplex alone, low dose doxorubicin (2.2 μg/injection), high dose doxorubicin (4.4 μg/injection, low dose doxorubicin nanoplex (2.2 μg/injection), high dose doxorubicin nanoplex (4.4 μg/injection). The mice were given five intravenous injections of the various treatments. Nanoplexes were administered every 2 to 3 days (Monday, Wednesday, Friday). Tumor size was assessed with calipers before each injection and 2 days after the last injection; the size was calculated by formula ½×d1×d22, where d2 is the smaller of the two measurements. Mice were weighed before each injection with tumor weight subtracted to obtain the final weight.

COc1cccc2c1C(=O)c1c(O)c3c(c(O)c1C2=O)C[C@@](O)(C(=O)CO)C[C@@H]3O[C@H]1C[C@H](N)[C@H](O)[C@H](C)O1 [free doxorubicin, doxorubicin]
tumor cells stained positive for Ki67 ([1]; high dose, 4.4 μg doxorubicin/injection): about 57% | tumor cells stained positive for Ki67 ([1]; low dose, 2.2 μg doxorubicin/injection): 80% | effect on growth / size of tumors (words) [2]: does not reduce the size of tumors | effect on growth / size of tumors (words) ([2]; listed as doxorubicin): no effect
